The values below come from ChEMBL document CHEMBL2429720, “Synthesis, antimicrobial, and cytotoxicity studies of novel sulfur-linked quinolinecoumarin bisheterocycles” (Med Chem Res, 2013).

Values after ≈ are worked out from the molar mass of the structure shown. Bounds are passed on as bounds.

The test system of experiment [1] is Staphylococcus aureus. In words: Antibacterial activity against Staphylococcus aureus ATCC 11632 at 100 ug/disk after 24 hrs by agar disk diffusion method. In kind it is functional. Particulars: ATCC 11632, 24 h, read-out: DIZ.
Experiment [2] relates to Escherichia coli. Put plainly: Antibacterial activity against Escherichia coli ATCC 25922 after 18 to 24 hrs by agar dilution method. The experiment is classed as functional. (In general: In agar dilution, organisms are placed on agar that contains the substance at set levels.)
The subject of experiment [3] is Candida albicans. In words: Antifungal activity against Candida albicans ATCC 90028 at 100 ug/disk after 48 hrs by agar disk diffusion method. The experiment is classed as functional. To be noted: ATCC 90028, 48 h, read-out: DIZ.
Experiment [4] relates to Escherichia coli. Put plainly: Antibacterial activity against Escherichia coli ATCC 25922 at 100 ug/disk after 24 hrs by agar disk diffusion method. In kind it is functional. Particulars: ATCC 25922, 24 h, read-out: DIZ. In general terms: Agar diffusion results depend on both activity and mobility in agar.
Experiment [5] relates to Candida albicans. Put plainly: Antifungal activity against Candida albicans ATCC 90028 after 18 to 24 hrs by agar dilution method. In kind it is functional.
Experiment [6] has as its system Staphylococcus aureus. Put plainly: Antibacterial activity against Staphylococcus aureus ATCC 11632 after 18 to 24 hrs by agar dilution method. The experiment is classed as functional.
The next experiment has as its system NIH3T3. In words: Cytotoxicity against mouse NIH/3T3 cells after 48 hrs by MTT assay. In kind it is cell-based. Particulars: NIH3T3, 48 h. A general note: Formazan colour is commonly taken as a measure of viable cells.
Experiment [7] deals with Staphylococcus aureus. In words: microbe, parasite or virus in culture. Particulars: ATCC 11632, 24 h, read-out: DIZ.
Description: Antibacterial activity against Staphylococcus aureus ATCC 11632 at 10 ug/disk after 24 hrs by agar disk diffusion method
For experiment [8], the system named is Escherichia coli. Put plainly: microbe, parasite or virus in culture. To be noted: ATCC 25922, 24 h, read-out: DIZ.
Description: Antibacterial activity against Escherichia coli ATCC 25922 at 10 ug/disk after 24 hrs by agar disk diffusion method
For experiment [9], the system named is Candida albicans. Put plainly: Antifungal activity against Candida albicans ATCC 90028 at 10 ug/disk after 48 hrs by agar disk diffusion method. In kind it is functional. To be noted: ATCC 90028, 48 h, read-out: DIZ.

As to `COC(=O)CSc1c(-c2cccc(Br)c2)nc2ccccc2c1-c1ccccc1`, the figures for the zone of inhibition at 100 µg/disc in the experiment with Staphylococcus aureus [1], with Candida albicans [3] and with Escherichia coli [4] were 18 mm, 13 mm and 15 mm, respectively. Also, the minimal inhibitory concentration (MIC) with Escherichia coli [2], against Candida albicans [5] and against Staphylococcus aureus [6] was 12.5 µg/mL (≈ 26.9 µM) in each case. Besides, the half-inhibitory concentration (IC50) (in general, the point on the concentration scale where inhibition reaches its midpoint) in the experiment with NIH3T3 is 456 µM.
`COC(=O)CSc1c(-c2cccc(OC)c2)nc2ccccc2c1-c1ccccc1`: the zone of inhibition at 100 µg/disc with Staphylococcus aureus [1], in the experiment with Candida albicans [3] and in the experiment with Escherichia coli [4] was 15 mm in each case. Moreover, the minimal inhibitory concentration (MIC) (commonly the lowest concentration that inhibits growth of the organism) with Escherichia coli [2] stood at 12.5 µg/mL (≈ 30.1 µM); in the experiment on Candida albicans [5], 25 µg/mL (≈ 60.2 µM); against Staphylococcus aureus [6], 25 µg/mL (≈ 60.2 µM).
For the molecule `O=c1oc2ccccc2cc1Sc1c(-c2ccccc2)nc2ccccc2c1-c1ccccc1`, the zone of inhibition at 100 µg/disc in the experiment with Staphylococcus aureus [1] was 12 mm; in the experiment with Candida albicans [3], 10 mm; in the experiment with Escherichia coli [4], 13 mm. The MIC against Escherichia coli [2], in the experiment with Candida albicans [5] and in the experiment with Staphylococcus aureus [6] was 25 µg/mL (≈ 54.6 µM) each time.
With `Cc1ccc(-c2nc3ccccc3c(-c3ccccc3)c2Sc2cc3ccccc3oc2=O)cc1`, the zone of inhibition at 100 µg/disc in the experiment with Staphylococcus aureus [1] worked out at 10 mm; in the experiment on Candida albicans [3], 12 mm; with Escherichia coli [4], 13 mm. The MIC with Escherichia coli [2], in the experiment with Candida albicans [5] and in the experiment with Staphylococcus aureus [6] was 25 µg/mL (≈ 53 µM) throughout.
In the case of `O=c1oc2ccccc2cc1Sc1c(-c2ccc(Cl)cc2)nc2ccccc2c1-c1ccccc1`, the zone of inhibition at 100 µg/disc in the experiment with Staphylococcus aureus [1] is 12 mm; in the experiment with Candida albicans [3] it was 15 mm; in the experiment with Escherichia coli [4] it was 12 mm. The MIC with Escherichia coli [2], with Candida albicans [5] and against Staphylococcus aureus [6] was 25 µg/mL (≈ 50.8 µM) throughout.
Consider `O=c1oc2ccccc2cc1Sc1c(-c2ccc(Br)cc2)nc2ccccc2c1-c1ccccc1`, for which the zone of inhibition at 100 µg/disc in the experiment on Staphylococcus aureus [1] worked out at 18 mm; in the experiment on Candida albicans [3], 20 mm; with Escherichia coli [4], 18 mm. Also, the MIC against Escherichia coli [2], in the experiment with Candida albicans [5] and against Staphylococcus aureus [6] was 12.5 µg/mL (≈ 23.3 µM) throughout.
In the case of `COc1ccc(-c2nc3ccccc3c(-c3ccccc3)c2Sc2cc3ccccc3oc2=O)cc1`, the zone of inhibition at 100 µg/disc is 16 mm in the experiment on Staphylococcus aureus [1], 12 mm in the experiment with Candida albicans [3] and 12 mm with Escherichia coli [4]. The MIC against Escherichia coli [2], against Candida albicans [5] and against Staphylococcus aureus [6] was 25 µg/mL (≈ 51.3 µM) throughout.
Consider `O=c1oc2ccccc2cc1Sc1c(-c2ccc([N+](=O)[O-])cc2)nc2ccccc2c1-c1ccccc1`, for which the figures for the zone of inhibition at 100 µg/disc in the experiment with Staphylococcus aureus [1], in the experiment on Candida albicans [3] and in the experiment on Escherichia coli [4] were 15 mm, 18 mm and 15 mm, respectively. Further, the MIC was 12.5 µg/mL (≈ 24.9 µM) in the experiment on Escherichia coli [2], 12.5 µg/mL (≈ 24.9 µM) in the experiment on Candida albicans [5] and 25 µg/mL (≈ 49.7 µM) in the experiment with Staphylococcus aureus [6].
For `O=c1oc2ccccc2cc1Sc1c(-c2ccc(-c3ccccc3)cc2)nc2ccccc2c1-c1ccccc1`, the zone of inhibition at 100 µg/disc in the experiment with Staphylococcus aureus [1] was 10 mm; with Candida albicans [3] it was 10 mm; in the experiment with Escherichia coli [4], below 10 mm. Besides, the values for the MIC with Escherichia coli [2], with Candida albicans [5] and in the experiment on Staphylococcus aureus [6] were 50 µg/mL (≈ 93.7 µM), 50 µg/mL (≈ 93.7 µM) and 25 µg/mL (≈ 46.8 µM), respectively.
Take `O=c1oc2ccccc2cc1Sc1c(-c2ccc3ccccc3c2)nc2ccccc2c1-c1ccccc1`: the zone of inhibition at 100 µg/disc in the experiment with Staphylococcus aureus [1], in the experiment with Candida albicans [3] and in the experiment with Escherichia coli [4] was below 10 mm throughout. For the same molecule, the MIC against Escherichia coli [2], with Candida albicans [5] and in the experiment on Staphylococcus aureus [6] was 50 µg/mL (≈ 98.5 µM) each time.
On to `COC(=O)CSc1c(-c2ccccc2)nc2ccccc2c1-c1ccccc1`, for which the zone of inhibition at 100 µg/disc in the experiment with Staphylococcus aureus [1] worked out at 15 mm; with Candida albicans [3], 10 mm; with Escherichia coli [4] it was 15 mm. Moreover, the minimal inhibitory concentration (MIC) in the experiment with Escherichia coli [2], against Candida albicans [5] and against Staphylococcus aureus [6] was 25 µg/mL (≈ 64.9 µM) throughout.
Take `COC(=O)CSc1c(-c2ccc(C)cc2)nc2ccccc2c1-c1ccccc1`: the zone of inhibition at 100 µg/disc with Staphylococcus aureus [1] turned out to be 16 mm; in the experiment with Candida albicans [3] it was 13 mm; with Escherichia coli [4], 11 mm. Also, the MIC turned out to be 25 µg/mL (≈ 62.6 µM) in the experiment on Escherichia coli [2], 12.5 µg/mL (≈ 31.3 µM) against Candida albicans [5] and 12.5 µg/mL (≈ 31.3 µM) against Staphylococcus aureus [6].
Take `COC(=O)CSc1c(-c2ccc(Cl)cc2)nc2ccccc2c1-c1ccccc1`: the zone of inhibition at 100 µg/disc in the experiment on Staphylococcus aureus [1] amounted to 13 mm; with Candida albicans [3] it was 15 mm; in the experiment with Escherichia coli [4], 12 mm. The figures for the MIC in the experiment with Escherichia coli [2], against Candida albicans [5] and against Staphylococcus aureus [6] were 12.5 µg/mL (≈ 29.8 µM), 25 µg/mL (≈ 59.5 µM) and 25 µg/mL (≈ 59.5 µM), respectively.
In the case of `COC(=O)CSc1c(-c2ccc(Br)cc2)nc2ccccc2c1-c1ccccc1`, the zone of inhibition at 100 µg/disc with Staphylococcus aureus [1] turned out to be 18 mm; with Candida albicans [3], 18 mm; with Escherichia coli [4] it was 20 mm. The figures for the MIC against Escherichia coli [2], with Candida albicans [5] and against Staphylococcus aureus [6] were 6.25 µg/mL (≈ 13.5 µM), 12.5 µg/mL (≈ 26.9 µM) and 12.5 µg/mL (≈ 26.9 µM), respectively.
Turning to `COC(=O)CSc1c(-c2ccc(OC)cc2)nc2ccccc2c1-c1ccccc1`, the zone of inhibition at 100 µg/disc in the experiment on Staphylococcus aureus [1] was 15 mm; in the experiment with Candida albicans [3] it was 12 mm; in the experiment on Escherichia coli [4], 15 mm. Also, the values for the MIC against Escherichia coli [2], against Candida albicans [5] and with Staphylococcus aureus [6] were 12.5 µg/mL (≈ 30.1 µM), 25 µg/mL (≈ 60.2 µM) and 12.5 µg/mL (≈ 30.1 µM), respectively.
Regarding `COC(=O)CSc1c(-c2ccc([N+](=O)[O-])cc2)nc2ccccc2c1-c1ccccc1`, the values for the zone of inhibition at 100 µg/disc with Staphylococcus aureus [1], with Candida albicans [3] and in the experiment with Escherichia coli [4] were 16 mm, 20 mm and 18 mm, respectively. Moreover, the MIC was 6.25 µg/mL (≈ 14.5 µM) in the experiment on Escherichia coli [2], 12.5 µg/mL (≈ 29 µM) in the experiment with Candida albicans [5] and 12.5 µg/mL (≈ 29 µM) against Staphylococcus aureus [6].
Take `COC(=O)CSc1c(-c2ccc(-c3ccccc3)cc2)nc2ccccc2c1-c1ccccc1`: the zone of inhibition at 100 µg/disc stood at 12 mm in the experiment on Staphylococcus aureus [1], 10 mm in the experiment on Candida albicans [3] and 10 mm with Escherichia coli [4]. For the same molecule, the minimal inhibitory concentration (MIC) against Escherichia coli [2] worked out at 25 µg/mL (≈ 54.2 µM); with Candida albicans [5] it was 50 µg/mL (≈ 108 µM); against Staphylococcus aureus [6], 25 µg/mL (≈ 54.2 µM).
`COC(=O)CSc1c(-c2ccc3ccccc3c2)nc2ccccc2c1-c1ccccc1`: the zone of inhibition at 100 µg/disc with Staphylococcus aureus [1], in the experiment on Candida albicans [3] and in the experiment with Escherichia coli [4] was 10 mm each time. In addition, the MIC came to 50 µg/mL (≈ 115 µM) against Escherichia coli [2], 25 µg/mL (≈ 57.4 µM) against Candida albicans [5] and 50 µg/mL (≈ 115 µM) in the experiment with Staphylococcus aureus [6].
For the molecule `COC(=O)CSc1c(-c2cccc(Cl)c2)nc2ccccc2c1-c1ccccc1`, the values for the zone of inhibition at 100 µg/disc in the experiment with Staphylococcus aureus [1], with Candida albicans [3] and in the experiment with Escherichia coli [4] were 18 mm, 15 mm and 18 mm, respectively. Moreover, the MIC against Escherichia coli [2], against Candida albicans [5] and in the experiment with Staphylococcus aureus [6] was 12.5 µg/mL (≈ 29.8 µM) throughout.
On to `O=C(O)c1cn(C2CC2)c2cc(N3CCNCC3)c(F)cc2c1=O` [CIPROFLOXACIN], for which the figures for the zone of inhibition at 10 µg/disc with Staphylococcus aureus [7] and in the experiment with Escherichia coli [8] were 25 mm and 28 mm, respectively.
In the experiment with Candida albicans [5], `Clc1ccccc1C(c1ccccc1)(c1ccccc1)n1ccnc1` [CLOTRIMAZOLE] showed an MIC of 6.25 µg/mL (≈ 18.1 µM). Besides, the zone of inhibition at 10 µg/disc in the experiment with Candida albicans [9] came to 28 mm.
